In ChEMBL document CHEMBL4390696, “Orientation preferences of hairpin pyrrole-imidazole polyamides toward mCGG site” (Bioorg Med Chem, 2019):

Legend:
[1] = Binding affinity to 5'-ATmCGGAT-3' DNA (unknown origin) assessed as association constant incubated for 180 secs by SPR analysis
[2] = Binding affinity to 5'-ATGGmCAT-3' DNA (unknown origin) in reverse orientation assessed as change in melting temperature at 5 uM by UV-vis spectrophotometry
[3] = Binding affinity to 5'-ATCGGAT-3' DNA (unknown origin) assessed as association constant incubated for 180 secs by SPR analysis
[4] = Binding affinity to 5'-ATmCGGAT-3' DNA (unknown origin) in reverse orientation assessed as change in melting temperature at 5 uM by UV-vis spectrophotometry
[5] = Binding preference index, ratio of Kd for 5'-ATmCGGAT-3' DNA (unknown origin) to Kd for 5'-ATCGGAT-3' DNA (unknown origin)
[6] = Orientation preference, ratio of change in melting temperature of forward binding site of 5'-ATmCGGAT-3' DNA (unknown origin) to sum of change in melting temperature of forward binding site and change in melting temperature of reverse binding site for 5'-ATmCGGAT-3' DNA (unknown origin)
[7] = Binding affinity to 5'-ATmCGGAT-3' DNA (unknown origin) assessed as dissociation constant incubated for 180 secs by SPR analysis
[8] = Binding affinity to 5'-ATCGGAT-3' DNA (unknown origin) assessed as dissociation rate constant incubated for 180 secs by SPR analysis
[9] = Binding affinity to 5'-ATmCGGAT-3' DNA (unknown origin) assessed as dissociation rate constant incubated for 180 secs by SPR analysis
[10] = Binding affinity to 5'-ATCGGAT-3' DNA (unknown origin) assessed as dissociation constant incubated for 180 secs by SPR analysis
[11] = Binding affinity to mCGG containing DNA assessed as inhibition of mouse TET1 catalytic domain binding to methylated 18 bp DNAs assessed as reduction in TET1-methylated DNA complex formation incubated for 30 mins by electrophoretic mobility shift assay
[12] = Orientation preference, ratio of change in melting temperature of forward binding site of 5'-ATGGmCAT-3' DNA (unknown origin) to sum of change in melting temperature of forward binding site and change in melting temperature of reverse binding site for 5'-ATGGmCAT-3' DNA (unknown origin)
[13] = Binding affinity to 5'-ATGGmCAT-3' DNA (unknown origin) in forward orientation assessed as change in melting temperature at 5 uM by UV-vis spectrophotometry
[14] = Binding affinity to 5'-ATmCGGAT-3' DNA (unknown origin) in forward orientation assessed as change in melting temperature at 5 uM by UV-vis spectrophotometry

| Structure (SMILES) | Ka [1] | ΔTm [2] [°C] | Ka [3] | ΔTm [4] [°C] | Ratio [5] | Ratio [6] | Kd [7] [nM] | Dissociation rate constant (koff) [8] | Dissociation rate constant (koff) [9] | Kd [10] [nM] | IC50 ([11]; read-out: IC50) [nM] | IC50 [11] | Ratio [12] | ΔTm [13] [°C] | ΔTm [14] [°C] |
| --- | --- | --- | --- | --- | --- | --- | --- | --- | --- | --- | --- | --- | --- | --- | --- |
| CC(=O)Nc1cc(C(=O)NCCC(=O)Nc2cn(C)c(C(=O)Nc3cc(C(=O)NCCCC(=O)Nc4cc(C(=O)Nc5cc(C(=O)Nc6cn(C)c(C(=O)Nc7cn(C)c(C(=O)NCCC(=O)NCCCN(C)C)n7)n6)n(C)c5)n(C)c4)n(C)c3)n2)n(C)c1 | 3.1 ×10⁴ /M/s | 13.1 | 3.6 ×10⁴ /M/s | 3.3 | 0.9 | 0.2 | 480 | 1.9 ×10⁻² /s | 1.5 ×10⁻² /s | 530 | – | – | – | – | – |
| CC(=O)Nc1cc(C(=O)NCCC(=O)Nc2cn(C)c(C(=O)Nc3cc(C(=O)NCC[C@@H](N)C(=O)Nc4cc(C(=O)NCCC(=O)Nc5cn(C)c(C(=O)Nc6cn(C)c(C(=O)NCCC(=O)NCCCN(C)C)n6)n5)n(C)c4)n(C)c3)n2)n(C)c1 | 3.2 ×10⁶ /M/s | 17.9 | 4.2 ×10⁶ /M/s | 16 | 1 | 0.47 | 1.7 | 7.2 ×10⁻³ /s | 5.3 ×10⁻³ /s | 1.7 | 170 | – | – | – | – |
| CC(=O)Nc1cc(C(=O)Nc2cc(C(=O)Nc3cn(C)c(C(=O)Nc4cc(C(=O)NCCCC(=O)Nc5cc(C(=O)Nc6cc(C(=O)Nc7cn(C)c(C(=O)Nc8cn(C)c(C(=O)NCCC(=O)NCCCN(C)C)n8)n7)n(C)c6)n(C)c5)n(C)c4)n3)n(C)c2)n(C)c1 | – | 6.7 | – | 1.6 | – | 0.19 | – | – | – | – | 2560 | – | – | – | – |
| CC(=O)Nc1cc(C(=O)Nc2cn(C)c(C(=O)Nc3cc(C(=O)Nc4cc(C(=O)NCCCC(=O)Nc5cn(C)c(C(=O)Nc6cn(C)c(C(=O)Nc7cc(C(=O)Nc8cc(C(=O)NCCC(=O)NCCCN(C)C)n(C)c8)n(C)c7)n6)n5)n(C)c4)n(C)c3)n2)n(C)c1 | 4.3 ×10³ /M/s | – | 1.2 ×10⁴ /M/s | – | 1.3 | – | 61 | 5.9 ×10⁻⁴ /s | 2.6 ×10⁻⁴ /s | 48 | – | Not Active | 0.94 | 21.5 | 1.4 |
| CC(=O)Nc1cc(C(=O)NCCC(=O)Nc2cn(C)c(C(=O)Nc3cc(C(=O)NCCCC(=O)Nc4cc(C(=O)NCCC(=O)Nc5cn(C)c(C(=O)Nc6cn(C)c(C(=O)NCCC(=O)NCCCN(C)C)n6)n5)n(C)c4)n(C)c3)n2)n(C)c1 | 7.4 ×10⁶ /M/s | 16.2 | 9 ×10⁶ /M/s | 11.8 | 0.9 | 0.42 | 8.9 | 8.9 ×10⁻² /s | 6.6 ×10⁻² /s | 9.8 | – | – | – | – | – |
| CC(=O)Nc1cc(C(=O)Nc2cn(C)c(C(=O)NCCC(=O)Nc3cc(C(=O)NCC[C@H](N)C(=O)Nc4cn(C)c(C(=O)Nc5cn(C)c(C(=O)NCCC(=O)Nc6cc(C(=O)NCCC(=O)NCCCN(C)C)n(C)c6)n5)n4)n(C)c3)n2)n(C)c1 | 2.5 ×10⁶ /M/s | 13.3 | 2.4 ×10⁶ /M/s | 20.8 | 1.1 | 0.39 | 2.3 | 8.6 ×10⁻³ /s | 5.8 ×10⁻³ /s | 3.6 | 120 | – | – | – | – |
| CC(=O)Nc1cc(C(=O)Nc2cc(C(=O)Nc3cn(C)c(C(=O)Nc4cc(C(=O)NCCCC(=O)Nc5cc(C(=O)NCCC(=O)Nc6cn(C)c(C(=O)Nc7cn(C)c(C(=O)NCCC(=O)NCCCN(C)C)n7)n6)n(C)c5)n(C)c4)n3)n(C)c2)n(C)c1 | 5.1 ×10⁵ /M/s | 14.8 | 5.2 ×10⁵ /M/s | 5.9 | 2.2 | 0.29 | 46 | 1.1 ×10⁻² /s | 2.3 ×10⁻² /s | 21 | – | – | – | – | – |
| CC(=O)Nc1cc(C(=O)Nc2cn(C)c(C(=O)NCCC(=O)Nc3cc(C(=O)NCCCC(=O)Nc4cn(C)c(C(=O)Nc5cn(C)c(C(=O)NCCC(=O)Nc6cc(C(=O)NCCC(=O)NCCCN(C)C)n(C)c6)n5)n4)n(C)c3)n2)n(C)c1 | 1.1 ×10⁶ /M/s | 8.6 | 1.4 ×10⁶ /M/s | 18.1 | 1.6 | 0.32 | 2.8 | 2.4 ×10⁻³ /s | 3.2 ×10⁻³ /s | 1.7 | – | – | – | – | – |
| CC(=O)Nc1cc(C(=O)Nc2cn(C)c(C(=O)NCCC(=O)Nc3cc(C(=O)NCCCC(=O)Nc4cn(C)c(C(=O)Nc5cn(C)c(C(=O)Nc6cc(C(=O)Nc7cc(C(=O)NCCC(=O)NCCCN(C)C)n(C)c7)n(C)c6)n5)n4)n(C)c3)n2)n(C)c1 | 3.2 ×10⁵ /M/s | – | 8.2 ×10⁵ /M/s | – | 4.1 | – | 610 | 1.2 ×10⁻¹ /s | 2 ×10⁻¹ /s | 150 | – | – | 0.54 | 12.5 | 10.8 |
| CC(=O)Nc1cc(C(=O)Nc2cn(C)c(C(=O)Nc3cc(C(=O)Nc4cc(C(=O)NCCCC(=O)Nc5cn(C)c(C(=O)Nc6cn(C)c(C(=O)NCCC(=O)Nc7cc(C(=O)NCCC(=O)NCCCN(C)C)n(C)c7)n6)n5)n(C)c4)n(C)c3)n2)n(C)c1 | 1.2 ×10⁶ /M/s | – | 9.7 ×10⁵ /M/s | – | 0.9 | – | 130 | 1.5 ×10⁻¹ /s | 1.6 ×10⁻¹ /s | 150 | – | – | 0.59 | 10.9 | 7.6 |
